In patent publication US20110281909A1, “SUBSTITUTED QUINOLINE DERIVATIVES AS H1 RECEPTOR ANTAGONISTS” (GLAXO GROUP LIMITED, priority 2007, published 2011):
Counter-ions that a name gives are not always drawn.

Experiments:
[1] = molecular target: T1, human H1 receptor (Homo sapiens, UniProt P35367); test: Histamine H1 functional antagonist assay: antagonist duration after washout; type: cell-based; conditions: at one or more time points after washout
T1 construct: expressed in transfected cells
Description: The human H1 receptor is cloned using known procedures described in the literature [Biochem. Biophys. Res. Commun., 201(2):894 (1994)]. Chinese hamster ovary (CHO) cells stably expressing the human H1 receptor are generated according to known procedures described in the literature [Br. J. Pharmacol., 117(6):1071 (1996)]. […] Following the 30 min antagonist incubation period, the cells are washed two or three times with 200 μl of PBS and then 100 μl Tyrodes buffer is added to each well to initiate antagonist dissociation. […] After this period, the cells are challenged with histamine in the FLIPR™ as described above. The dose ratio at each time point is used to determine the fractional H1 receptor occupancy by the following equation: fractional receptor occupancy=(DR-1)/DR. The decrease in receptor occupancy over time approximates to a straight line and is analysed by linear regression. The slope of this straight line fit is used as an index of the dissociation rate of the antagonist. The dose ratios for antagonist treated cells and for antagonist treated and washed cells at each time point are used to calculate a relative dose ratio (rel DR) which is also used as an index of antagonist duration. […]

[2] = system: histamine-induced congestion; test: Intranasal challenge method: whole body plethysmography; type: in vivo, Female Dunkin-Hartley guinea pigs; conditions: guinea pig, dosed intranasally at 1 mg/ml either 3 hr or 24 hr before histamine challenge
Description: Intranasal Challenge Method: Whole Body Plethysmography
Female Dunkin-Hartley guinea pigs 150-250 g are sensitised twice daily for 5 days (week 1) with ovalbumin (OVA) and aluminium hydroxide (Al(OH)3 or Alum) in physiological saline, 25 μl/nostril. Solution is made up at 20 μg/ml OVA, 180 mg/ml Alum.
Pretreatment with test compound is performed at various times prior to histamine challenge. Efficacy dose-response curves are determined 1 hr and/or 3 hr after dosing whereas duration of action may be studied up to 7 days post dose (for example, at 24 hours). Test compounds are formulated as solutions in 0.9% sterile saline or suspensions in 0.9% sterile saline/tween80. […]
After the stipulated pre-dose time has been reached, guinea pigs are re-anaesthetised with isoflurane and dosed with either 10 mM or 15 mM histamine or phosphate-buffered saline (PBS), (25 μl per nostril). […] Data are analysed using ANOVA with post-hoc Fishers LSD test (general linear models, Statistica®) and finally Hochberg adjustment. Inhibition of histamine-induced congestion is determined by statistically significant differences between the mean responses of compound pre-treated groups compared to the vehicle pre-treated, histamine-challenged group.

T1 sequence (P35367 whole entry): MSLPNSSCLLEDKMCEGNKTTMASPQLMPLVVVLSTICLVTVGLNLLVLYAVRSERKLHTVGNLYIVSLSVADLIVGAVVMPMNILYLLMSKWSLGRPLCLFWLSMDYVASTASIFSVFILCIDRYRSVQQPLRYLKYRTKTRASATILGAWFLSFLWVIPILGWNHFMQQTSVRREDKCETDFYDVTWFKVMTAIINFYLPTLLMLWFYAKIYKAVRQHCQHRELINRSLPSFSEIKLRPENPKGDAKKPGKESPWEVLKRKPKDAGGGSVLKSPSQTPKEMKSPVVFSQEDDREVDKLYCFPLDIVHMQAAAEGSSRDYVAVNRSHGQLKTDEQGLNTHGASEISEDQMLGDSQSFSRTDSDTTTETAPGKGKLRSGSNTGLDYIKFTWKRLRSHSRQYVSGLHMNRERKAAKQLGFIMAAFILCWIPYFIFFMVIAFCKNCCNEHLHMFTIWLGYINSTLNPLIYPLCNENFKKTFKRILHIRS

Compound	duration of action compared with azelastine in the histamine H1 functional antagonist assay [1]	inhibition of the response to histamine challenge (duration of action) in the intranasal challenge model [2]
CCCCc1cc(OC2CCN(CCCCNS(=O)(=O)CC(C)C)CC2)c2ncccc2c1 [Example 26, N-(4-{4-[(6-Butyl-8-quinolinyl)oxy]-1-piperidinyl}butyl)-2-methyl-1-propanesulfonamide, dihydrochloride salt]	longer duration of action than azelastine	–
CN1CCCC(n2nc(Cc3ccc(Cl)cc3)c3ccccc3c2=O)CC1 (centres unmarked) [azelastine]	–	failed to show a similar duration of action
